# Assay results: article PMC5730604
# Positions of bridges follow the written chain, without caps; N, C: chain ends. Non-standard residues stand in square brackets, D forms with d. Residues, ends and D or L forms follow the SMILES beside them. Chains are numbered I, II in the order given. *: point of attachment. PEG28 = NCCOCCOCCOCCOCCOCCOCCOCCOCCOCCOCCOCCOCCOCCOCCOCCOCCOCCOCCOCCOCCOCCOCCOCCOCCOCCOCCOCCOCCC(=O)O; Tyr(3-NO2) = N[C@@H](Cc1ccc(O)c([N+](=O)[O-])c1)C(=O)O; Hyp = O=C(O)[C@@H]1C[C@@H](O)CN1; For = O=C*
# Legend:
# [1] = target: immobilized integrin α3β1 (VLA-3) (Homo sapiens, UniProt P26006); assay: biochemical
# Method: Single cycle kinetic experiments were conducted on a Biacore 3000 system using a CM5 sensor chip at 25 and 37 °C with a flow rate of 10 µl/min. After coupling of the VLA-3 receptor (R&D Systems) via standard EDC/NHS immobilization chemistry (7 min activation with EDC/NHS followed by a 7 min flush with VLA-3) in 10 mM NaOAc buffer at pH 6 containing 1 mM MnCl2, a […] solution of ethanolamine was injected for 7 min to block all amine reactive sites. Subsequently the analyte was flushed over the chip surface at a flow rate of 10 µl/min in HEPES buffered saline supplemented with 1 mM MnCl2.
# GPC-16 tumor cells = assay: GPC-16 tumor model in guinea pigs; type: in vivo, Guinea pig
# Method: by incubation with a 1:50 dilution of the secondary antibody (biotinylated goat -ant i-r at Ig G, BD Pharmingen, #554014 ). After incubation with horseradish peroxidase (HRP) coupled streptavidin color development was performed using the DAB substrate kit. All immunohistochemical stained tissue sections were counterstained using haemalaun or […]
# Assessment of anti-tumor efficacy in the GPC -16 tumor model in guinea pig GPC-16 cells (guinea pig colorectal adenocarcinoma) were acquired from LGC and were cultured in Eagle’s minimum essential medium with 10% FCS and 100 U/ml Penicillin and 100 µg/ml Streptomycin. For each experiment 10 f emale guinea pigs (8- 10 weeks old) per group were immunosuppressed with an intraperitoneal injection of 200 mg/kg cyclophosphamide (CPA) one day bef ore the tumor inoculation and repeated every 7- 10 days for 4 week s. Efficacy of the CPA treatment was verif ied by routine blood analysis bef ore f irst CPA treatment and on a week ly basis thereafter. For the evaluation of the anti-tumor efficacy of the Y9 the 10 animals were divided into two groups of 5 animals. […] The presence of tumors in the sk in sections was evaluated by a board certif ied veterinarian pathologist using a scoring system. […]
# T o study whether a repeated subcutaneous dosing of Y9 has any local or systemic toxic effects on animals, the following dose escalation study was performed. […] B ody weig ht and general health observations were evaluated on a daily basis. […] Organs (sk in, brain, heart, k idney, liver, lung, ovaries/testis, spleen, local and distal lymph nodes, mesentery, small intestine, stomach, pancreas) were isolated af ter euthanasia with an isof lurane overdose for histopathology and body weight-normalized organ weights (brain, kidney, heart, liver, spleen) were calculated.
# W eights of the carcass, brain, heart, kidney, liver and spleen were determined and body weight-normalized organ weight in % was calculated as follows: […]
# Balb/c mice = assay: Dose escalation study and acute toxicity; type: in vivo, Mouse
# Method: Dose escalation study and evaluation of acute toxicity in mice
# T o study whether a repeated subcutaneous dosing of Y9 has any local or systemic toxic effects on animals, the following dose escalation study was performed. Groups of 5 Balb/c mice were inoculated subcutaneously with 100 µl of 0.9 % saline (NaCl) solution containing either 200 nmol, 400 nmol or 800 nmol Y9 . Two control groups (a total of 10 mice) received only 0.9% saline. T he injections were repeated every other day f or a total of seven injections. B ody weig ht and general health observations were evaluated on a daily basis. At day 4 after the last inoculation of the solutions blood was collected under isof lurane anesthesia f or hematology and f or serum analysis by retro- orbital puncture. Organs (sk in, brain, heart, k idney, liver, lung, ovaries/testis, spleen, local and distal lymph nodes, mesentery, small intestine, stomach, pancreas) were isolated af ter euthanasia with an isof lurane overdose for histopathology and body weight-normalized organ weights (brain, kidney, heart, liver, spleen) were calculated.
# W eights of the carcass, brain, heart, kidney, liver and spleen were determined and body weight-normalized organ weight in % was calculated as follows:
# Body weight-normalized organ weight [%] = organ weight [g] x 100 […]
# The following serum parameters were analyzed with the Vitros 250 (Johnson&Johnson) machine measuring parameters at 25°C: […] (CK), alk aline Phosphatase (ALP), Amylase, GOT/AST, GPT/ALT, GGT, LDH, Lipase, total protein (TP), Glucose (GLU), Cholesterol (CHOL), Triglyceride (TRIG), blood urea nitrogen (BUN), Creatinine (CREA), total bilirubin (TBIL), inorganic Phosphorus (PHOS), Sodium (Na), Potassium (K), Calcium (Ca), […]
# (MCHC), banded neutrophils, segmented neutrophils, lymphocytes (Lymphs), monocytes (Monos), eosinophils (EOS), basophils (BASO). The organ sections were histopathological […]
# pathological abnormalities f ound. […]
# glycerin (f inal concentration 227 µg/ml). […]
# on a nitrocellulose membrane. For calibration, control serum was spiked with Y9 in […]
# The membrane was washed 3
# The membrane was f inally washed 3 times in […]
# quantitated using Image J software. The calibration samples were used to prepare a linear […]
# values of < 0.05 were considered signif icant.
# in vivo = conditions: mouse, serum, sc
# in vitro = conditions: mouse, fresh mouse serum
# [2] = Balb/c mice, s.c. 200, 400 or 800 nmol every two days for 14 days
# [3] = highest dose 800 nmol (printed 800 nm), repeated s.c., day 4 after last dose
smiles,measurement,setting,value
"CC[C@H](C)[C@H](NC(=O)[C@H](CCSC)NC=O)C(=O)N[C@@H](Cc1ccccc1)C(=O)N[C@@H](CC(C)C)C(=O)NCC(=O)NCC(=O)N[C@@H](CCCCNC(=O)CCOCCOCCOCCOCCOCCOCCOCCOCCOCCOCCOCCOCCOCCOCCOCCOCCOCCOCCOCCOCCOCCOCCOCCOCCOCCOCCOCCOCCNC(=O)[C@H]1CSSC[C@@H](N)C(=O)N[C@H](CC(=O)O)C(=O)NCC(=O)N[C@@H](Cc2ccc(O)c([N+](=O)[O-])c2)C(=O)NCC(=O)N2C[C@H](O)C[C@H]2C(=O)N[C@@H](CC(N)=O)C(=O)N1)C(=O)N[C@@H](CCCCNC(=O)CCOCCOCCOCCOCCOCCOCCOCCOCCOCCOCCOCCOCCOCCOCCOCCOCCOCCOCCOCCOCCOCCOCCOCCOCCOCCOCCOCCOCCNC(=O)[C@H]1CSSC[C@@H](N)C(=O)N[C@H](CC(=O)O)C(=O)NCC(=O)N[C@@H](Cc2ccc(O)c([N+](=O)[O-])c2)C(=O)NCC(=O)N2C[C@H](O)C[C@H]2C(=O)N[C@@H](CC(N)=O)C(=O)N1)C(=O)O [Y9] (I: H-[dC][dD]G[Tyr(3-NO2)]G[Hyp]N[dC][PEG28] / II: H-[dC][dD]G[Tyr(3-NO2)]G[Hyp]N[dC][PEG28] / III: For-MIFLGGKK-OH; disulfide I:1-I:8, II:1-II:8; amide I:C-III:7, II:C-III:8)",Kd,[1],0.06 µM
same,animals with tumors present after 35 days,"GPC-16 tumor cells; single dose 200 nmol mixed with 1.6–2 × 10^7 GPC-16 cells and Matrigel, s.c., CPA-treated Dunkin Hartley guinea pigs, control 8 out of 9",3 out of 10
same,reduction of establishment of GPC-16 based tumor,"GPC-16 tumor cells; single dose treatment during injection of tumor cells, guinea pigs",67%
same,undesired effects in guinea pigs,GPC-16 tumor cells; single s.c. dose 200 nmol,reddening at the injection site
same,hematological analysis including differential hemogram of white blood cells,"Balb/c mice; Balb/c mice, repeated s.c. dosing",no significant changes
same,relative organ weights,"Balb/c mice; Balb/c mice, repeated s.c. dosing, no histopathological abnormalities or steatosis in liver",slightly enlarged liver weight
same,histopathological effects in organs,"Balb/c mice; Balb/c mice, s.c. 200 nmol every two days for 14 days, liver, kidney, pancreas, spleen, heart, lung, ovaries, brain, stomach, intestine, mesentery",No histopathological effects
same,histopathological effects in organs,"Balb/c mice; Balb/c mice, s.c. 400 nmol every two days for 14 days, same organs",No histopathological effects
same,kidney histopathology,"Balb/c mice; Balb/c mice, s.c. 800 nmol every two days for 14 days",moderate degenerative changes of the kidney
same,draining lymph nodes,Balb/c mice; [2],mild but significant dose-dependent immune infiltration and lymphoid hyperplasia
same,local effects at the injection site,Balb/c mice; [2],increased neutrophil and monocyte infiltrates at the injection site
same,amylase level in serum,Balb/c mice; [3],significantly increased
same,blood urea nitrogen (BUN) level in serum,Balb/c mice; [3],significantly increased
same,cholesterol level in serum,Balb/c mice; [3],significantly increased
same,creatinine (CREA) level in serum,Balb/c mice; [3],slightly but significant increased
same,lipase level in serum,Balb/c mice; [3],slightly but significant increased
same,triglycerides level in serum,Balb/c mice; [3],significantly increased
same,half-life,in vivo,~2 h
same,level at time molar at 1 h,in vivo; 200 nmol,350 nM
same,level at time molar at 7 h,in vivo; 200 nmol,75 nM
same,"metabolised at 48 h, 60 µM",in vitro,20%
